# In patent EP3366695B1, “SAPOSIN-A DERIVED PEPTIDES AND USES THEREOF” (Children's Medical Center Corporation, priority 2009, dated 2021):
# What was measured:
# Tsp-1 [1] = test: Tsp-1 expression in WI-38 lung fibroblasts, western blot; type: cell-based, human
# Description: For Western blotting, cells were harvested by mechanical scraping into 4°C PBS, cell pellets were obtained by removing PBS after centrifugation at 13,000rpm in a Heraeus Biofuge Fresco (Thermo Electron, Asheville, NC) for 2 min. Cells were then lysed in 50 mM Tris-HCl (pH 7.4), 150 mM NaCl, 1 % NP40, 1 mM sodium orthovanadate, 5 mM NaF, 20 mM β-glycerophosphate, and complete protease inhibitor (Roche, Indianapolis, IN) and protein concentrations were determined by the BioRad protein assay (BioRad, Hercules, CA). Fifty micrograms of protein were loaded per well onto a 4-12 % pre-cast Bis-Tris gel (BioRad, Hercules, CA). The protein extracts were electrophoresed and transferred to an immobilon-P membrane (Millipore, Bedford, MA). The membranes were blocked in 5 % nonfat milk and incubated in primary antibody to Tsp-1 (Ab-11, LabVision, Fremont, CA), c-Myc and phospho-Myc (Cell Signaling Technology, Beverly, MA), Prosaposin (Santa Cruz Biotechnology, Santa Cruz, CA), β-actin (AbCam, Cambridge, UK). […] Protein volume intensity was determined using a Bio-Rad Chemi-Doc XRS system (Bio-Rad, CA). […]
# Seven 20-amino acid (20-mer) peptides derived from saposin A were tested for ability to stimulate Tsp-1 expression in fibroblasts. […] WI-38 lung fibroblasts were treated with these peptides overnight and the Tsp-1 expression was analyzed by Western blot analysis. […]
# p53 [2] = test: p53 expression in WI-38 fibroblasts, western blot; type: cell-based, human; details: cyclic 13-mer plus D4476
# MDM2 = MDM2 protein levels in WI-38 fibroblasts, western blot; type: cell-based, human; details: cyclic 13-mer plus D4476
# p53 [3] = test: p53 expression in prostate fibroblasts, western blot; type: cell-based, human; details: PC3 conditioned media in the presence of the inhibitor
# Description: (§1) Methods of assaying the effects of mutant, fragment or variant Psap on Tsp-1 and p53 expression are described herein. Briefly, full-length, mutant, fragment and variant Psap are applied to the cell cultures prostate fibroblast. The conditioned media from PC3M-LN4 (LN4) and PC3 cells are used as controls, with PC3 as positive/stimulating control and LN4 as negative/inhibiting controls. After a period of […] (∼16 h), the cells are harvested, rinsed, and lysed. The lysates are analyzed for the level of Tsp-1 and p53 expression by western blot analyses, with β-actin as the internal lysate protein loading control. […]
# (§2) For Western blotting, cells were harvested by mechanical scraping into 4°C PBS, cell pellets were obtained by removing PBS after centrifugation at 13,000rpm in a Heraeus Biofuge Fresco (Thermo Electron, Asheville, NC) for 2 min. Cells were then lysed in 50 mM Tris-HCl (pH 7.4), 150 mM NaCl, 1 % NP40, 1 mM sodium orthovanadate, 5 mM NaF, 20 mM β-glycerophosphate, and complete protease inhibitor (Roche, Indianapolis, IN) and protein concentrations were determined by the BioRad protein assay (BioRad, Hercules, CA). […] Protein volume intensity was determined using a Bio-Rad Chemi-Doc XRS system (Bio-Rad, CA).
# Tsp-1 [4] = test: Tsp-1 expression in prostate fibroblasts, western blot; type: cell-based, human; details: PC3 conditioned media in the presence of the inhibitor
# Description: as §1, §2
# thrombospondin-1 (Tsp-1) = test: Tsp-1 expression in lungs and livers of treated mice, western blot; type: in vivo
# Description: The 20-mer […] (SEQ. ID. No. 29) was tested in vivo in mice for their ability to induce Tsp-1 expression. Four mice were treated with the 20-amino acid peptide (residues 31-50 of saposin A) at a dose of 30mg/kg/day in combination with 200uL of conditioned media (CM) from the metastatic prostate cancer cell line PC3M-LN4. […] Another four mice were treated with CM from PC3M-LN4 alone, and a control group of four mice with treated with vehicle (PBS) alone. […] Mice were treated for 9 days after which they were sacrificed and the lungs and livers were harvested and lysed. Tissue lysates were then run on a 4-12% gradient bis-tris polyacrylamide gel and transferred to a nitrocellulose membrane for western blotting with antibodies specific for thrombospondin-1 (Tsp-1) and β-actin.
# [5] = mice treated for 9 days, relative to control (vehicle PBS)
# [6] = mice, 30mg/kg/day with 200uL PC3M-LN4 CM, 9 days, compared to PC3M-LN4 CM
molecule,measurement,setting,value
NC(=O)c1ccc(-c2nc(-c3ccc4c(c3)OCCO4)c(-c3ccccn3)[nH]2)cc1 [D4476],Tsp-1 protein levels,"Tsp-1 [1]; WI-38 fibroblasts, cyclic 13-mer plus D4476",reduction of Tsp-1 and p53
same,p53 protein levels,p53 [2],reduction of Tsp-1 and p53
same,MDM2 protein levels,MDM2,increase in MDM2 protein levels
COc1ccc2c(c1)c(C1=C(c3c[nH]c4ccccc34)C(=O)NC1=O)cn2CCCN(C)C [Gö 6983],stimulation of p53 by PC3 CM,p53 [3],abolished the stimulation of Tsp-1 and p53
same,stimulation of Tsp-1 by PC3 CM,Tsp-1 [4],abolished the stimulation of Tsp-1 and p53
"LEKTCDWLPKPNMSASCKEI [20-mer, 20-mer peptide, residues 31-50 of saposin A]",Tsp-1 expression,Tsp-1 [1]; WI-38 fibroblasts treated with peptide,able to stimulate Tsp-1 expression
same,Tsp-1 expression in the liver,thrombospondin-1 (Tsp-1); [5],stimulated Tsp-1 expression over control
same,Tsp-1 expression in the lung,thrombospondin-1 (Tsp-1); [5],stimulated Tsp-1 expression over control
same,stimulated expression of Tsp-1 in the liver,thrombospondin-1 (Tsp-1); [6],4 fold
same,stimulated expression of Tsp-1 in the lung,thrombospondin-1 (Tsp-1); [6],6 fold
same,level of stimulation of Tsp-1,"thrombospondin-1 (Tsp-1); mice, 9 days, compared with positive control PC3 conditioned media",greater than that of the weakly metastatic pancreatic cancer cell line PC3
